Measurements from US7709507B2 (Allergan, Inc., priority 2006, dated 2010).
Read-outs that look alike come from different tables or passages of the source.

Columns and labels:
Type in all cases: cell-based
[1] = molecular target: T1, alpha2A receptor (Homo sapiens, UniProt P08913); assay: Receptor Selection and Amplification Technology (RSAT) assay, Alpha 2A; details: for Alpha 2A IA (intrinsic activity): ratio of maximal effect to that of standard full agonist brimonidine (UK14304)
T1 construct: expressed in transfected cells; host or cells: NIH-3T3 cells
T1 sequence (P08913 1-465): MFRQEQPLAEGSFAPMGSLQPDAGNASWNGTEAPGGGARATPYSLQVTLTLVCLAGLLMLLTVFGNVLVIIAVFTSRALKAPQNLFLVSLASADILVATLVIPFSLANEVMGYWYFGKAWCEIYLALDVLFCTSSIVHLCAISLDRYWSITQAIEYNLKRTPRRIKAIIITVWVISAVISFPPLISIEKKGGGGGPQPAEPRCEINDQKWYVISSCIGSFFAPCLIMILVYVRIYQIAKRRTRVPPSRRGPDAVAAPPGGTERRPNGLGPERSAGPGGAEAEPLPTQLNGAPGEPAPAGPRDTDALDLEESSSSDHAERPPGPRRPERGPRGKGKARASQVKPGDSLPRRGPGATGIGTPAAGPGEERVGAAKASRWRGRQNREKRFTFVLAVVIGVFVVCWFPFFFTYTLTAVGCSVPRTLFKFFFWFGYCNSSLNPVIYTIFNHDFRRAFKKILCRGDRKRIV
Procedure: (§1) Receptor Selection and Amplification Technology (RSAT) Assay
(§2) The RSAT assay measures a receptor-mediated loss of contact inhibition that results in selective proliferation of receptor-containing cells in a mixed population of confluent cells. The increase in cell number is assessed with an appropriate transfected marker gene such as β-galactosidase, the activity of which can be easily measured in a 96-well format. Receptors that activate the G protein, Gq, elicit this response. Alpha2 receptors, which normally couple to Gi, activate the RSAT response when coexpressed with a hybrid Gq protein that has a Gi receptor recognition domain, called Gq/i5.
(§3) NIH-3T3 cells are plated at a density of 2×10^6 cells in 15 cm dishes and maintained in Dulbecco's modified Eagle's medium supplemented with 10% calf serum. One day later, cells are cotransfected by calcium phosphate precipitation with mammalian expression plasmids encoding p-SV-β-galactosidase (5-10 μg), receptor (1-2 μg) and G protein (1-2 μg). 40 μg salmon sperm DNA may also be included in the transfection mixture. […] Cells are thawed and 100 μl added to 100 μl aliquots of various concentrations of drugs in triplicate in 96-well dishes. Incubations continue 72-96 hr at 37° C. After washing with phosphate-buffered saline, β-galactosidase enzyme activity is determined by adding 200 μl of the chromogenic substrate (consisting of 3.5 mM o-nitrophenyl-β-D-galactopyranoside and 0.5% nonidet P-40 in phosphate buffered saline), incubating overnight at 30° C. and measuring optical density at 420 nm. The absorbance is a measure of enzyme activity, which depends on cell number and reflects a receptor-mediated cell proliferation. The efficacy or intrinsic activity is calculated as a ratio of the maximal effect of the drug to the maximal effect of a standard full agonist for each receptor subtype. Brimonidine, also called UK14304, the chemical structure of which is shown below, is used as the standard agonist for the alpha2A, alpha2B and alpha2C receptors. The EC50 is the concentration at which the drug effect is half of its maximal effect.
(§4) EC50 values are nanomolar. NA stands for “not active” at concentrations less than 10 micromolar. IA stands for “intrinsic activity.”

[2] = molecular target: T2, alpha2B receptor (Homo sapiens, UniProt P18089); assay: Receptor Selection and Amplification Technology (RSAT) assay, Alpha 2B; details: for EC50: transfected NIH-3T3 cells with Gq/i5, not active = at concentrations less than 10 micromolar; for Alpha 2B IA (intrinsic activity): ratio of maximal effect to that of standard full agonist brimonidine (UK14304)
T2 construct: expressed in transfected cells; host or cells: NIH-3T3 cells
T2 sequence (P18089 1-450): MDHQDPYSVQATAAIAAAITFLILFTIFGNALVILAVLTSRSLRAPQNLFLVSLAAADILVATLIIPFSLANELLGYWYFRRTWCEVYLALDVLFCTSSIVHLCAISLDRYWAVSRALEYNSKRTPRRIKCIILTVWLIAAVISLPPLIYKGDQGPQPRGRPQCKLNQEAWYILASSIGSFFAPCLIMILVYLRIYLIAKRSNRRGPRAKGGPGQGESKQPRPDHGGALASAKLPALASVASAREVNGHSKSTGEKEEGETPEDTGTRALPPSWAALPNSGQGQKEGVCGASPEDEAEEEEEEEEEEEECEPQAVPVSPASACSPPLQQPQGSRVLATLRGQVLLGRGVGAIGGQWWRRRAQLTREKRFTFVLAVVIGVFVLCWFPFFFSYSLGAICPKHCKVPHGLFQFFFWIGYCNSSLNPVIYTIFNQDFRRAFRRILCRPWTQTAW
Procedure: as §1, §2
NIH-3T3 cells are plated at a density of 2×10^6 cells in 15 cm dishes and maintained in Dulbecco's modified Eagle's medium supplemented with 10% calf serum. One day later, cells are cotransfected by calcium phosphate precipitation with mammalian expression plasmids encoding p-SV-β-galactosidase (5-10 μg), receptor (1-2 μg) and G protein (1-2 μg). 40 μg salmon sperm DNA may also be included in the transfection mixture. Fresh media is added on the following day and 1-2 days later, cells are harvested and frozen in 50 assay aliquots. Cells are thawed and 100 μl added to 100 μl aliquots of various concentrations of drugs in triplicate in 96-well dishes. Incubations continue 72-96 hr at 37° C. After washing with phosphate-buffered saline, β-galactosidase enzyme activity is determined by adding 200 μl of the chromogenic substrate (consisting of 3.5 mM o-nitrophenyl-β-D-galactopyranoside and 0.5% nonidet P-40 in phosphate buffered saline), incubating overnight at 30° C. and measuring optical density at 420 nm. The absorbance is a measure of enzyme activity, which depends on cell number and reflects a receptor-mediated cell proliferation. The efficacy or intrinsic activity is calculated as a ratio of the maximal effect of the drug to the maximal effect of a standard full agonist for each receptor subtype. Brimonidine, also called UK14304, the chemical structure of which is shown below, is used as the standard agonist for the alpha2A, alpha2B and alpha2C receptors. The EC50 is the concentration at which the drug effect is half of its maximal effect.
The results of the RSAT assay with several exemplary compounds of the invention are disclosed in Table 1 above together with the chemical formulas of these exemplary compounds. EC50 values are nanomolar. NA stands for “not active” at concentrations less than 10 micromolar. IA stands for “intrinsic activity.”

[3] = molecular target: T3, alpha2C receptor (Homo sapiens, UniProt P18825); assay: Receptor Selection and Amplification Technology (RSAT) assay, Alpha 2C; details: for Alpha 2C IA (intrinsic activity): ratio of maximal effect to that of standard full agonist brimonidine (UK14304)
T3 construct: expressed in transfected cells; host or cells: NIH-3T3 cells
T3 sequence (P18825 1-462): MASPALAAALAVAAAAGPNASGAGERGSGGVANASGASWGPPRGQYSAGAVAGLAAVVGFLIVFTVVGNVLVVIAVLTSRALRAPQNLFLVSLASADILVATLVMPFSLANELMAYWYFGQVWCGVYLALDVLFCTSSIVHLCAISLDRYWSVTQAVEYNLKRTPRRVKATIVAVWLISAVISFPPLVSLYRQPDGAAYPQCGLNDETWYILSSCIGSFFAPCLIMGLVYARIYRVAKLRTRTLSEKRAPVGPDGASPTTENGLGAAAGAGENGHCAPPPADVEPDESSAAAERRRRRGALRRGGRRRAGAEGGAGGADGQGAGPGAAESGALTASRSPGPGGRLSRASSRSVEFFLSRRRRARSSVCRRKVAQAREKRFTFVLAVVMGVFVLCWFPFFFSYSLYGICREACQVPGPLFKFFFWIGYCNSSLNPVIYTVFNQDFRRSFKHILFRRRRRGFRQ
Procedure: as §1, §2, §3, §4

[4] = RSAT, transfected NIH-3T3 cells with Gq/i5, not active = at concentrations less than 10 micromolar
[5] = RSAT, transfected NIH-3T3 cells with Gq/i5, not active = at concentrations less than 10 micromolar, read-out: Alpha 2C EC50
[6] = RSAT, transfected NIH-3T3 cells with Gq/i5, not active = at concentrations less than 10 micromolar, read-out: Alpha 2A EC50

Compound	Alpha 2A EC50 [1, 4]	EC50 ([2]; RSAT, read-out: Alpha 2B EC50) [µM]	Alpha 2B IA (intrinsic activity) [2]	Alpha 2C EC50 [3, 4]	EC50 [3, 5] [µM]	Alpha 2C IA (intrinsic activity) [3]	EC50 [1] [µM]	Alpha 2A IA (intrinsic activity) [1]	EC50 ([2]; Alpha 2B EC50, RSAT) [µM]	EC50 [3] [µM]	EC50 [1, 6] [µM]
O=C(NCCF)NC(Cc1cccc(F)c1)c1cccc(C(F)(F)F)c1 (stereo not shown) [1-(2-fluoro-ethyl)-3-[2-(3-fluoro-phenyl)-1-(3-trifluoromethyl-phenyl)-ethyl]-urea]	not active	0.0842	0.84	not active	–	–	–	–	–	–	–
O=C(NCCF)NC(Cc1cccc(F)c1)c1cccnc1 (stereo not shown) [1-(2-fluoro-ethyl)-3-[2-(3-fluoro-phenyl)-1-pyridin-3-yl-ethyl]-urea]	not active	1.99	0.41	not active	–	–	–	–	–	–	–
O=C(NCCF)NC(Cc1ccc(F)cc1)c1cccnc1 (stereo not shown) [1-(2-fluoro-ethyl)-3-[2-(4-fluoro-phenyl)-1-pyridin-3-yl-ethyl]-urea]	not active	2.78	0.49	not active	–	–	–	–	–	–	–
O=C(NCCF)NC(Cc1ccccc1)c1cccc2ccccc12 (stereo not shown) [1-(2-fluoroethyl)-3-[1-(1-naphthyl)-2-phenylethyl]urea]	not active	0.16	0.77	not active	–	–	–	–	–	–	–
COc1ccccc1C(Cc1ccccc1)NC(=O)NCCF (stereo not shown) [1-(2-fluoroethyl)-3-[1-(2-methoxyphenyl)-2-phenylethyl]urea]	not active	0.0512	0.88	–	0.0789	0.42	–	–	–	–	–
COc1ccc(C(Cc2ccccc2)NC(=O)NCCF)cc1 (stereo not shown) [1-(2-fluoroethyl)-3-[1-(4-methoxyphenyl)-2-phenylethyl]urea]	not active	1.06	0.3	not active	–	–	–	–	–	–	–
Cc1ccc(C(Cc2ccccc2)NC(=O)NCCF)cc1 (stereo not shown) [1-(2-fluoroethyl)-3-[1-(4-methylphenyl)-2-phenylethyl]urea]	not active	0.218	0.53	not active	–	–	–	–	–	–	–
O=C(NCCF)NC(Cc1ccccc1F)c1ccccc1 (stereo not shown) [1-(2-fluoroethyl)-3-[2-(2-fluorophenyl)-1-phenylethyl]urea]	not active	0.0129	0.96	not active	–	–	–	–	–	–	–
O=C(NCCF)NC(Cc1ccc(F)cc1)c1ccccc1 (stereo not shown) [1-(2-fluoroethyl)-3-[2-(4-fluorophenyl)-1-phenylethyl]urea]	not active	0.0513	0.93	not active	–	–	–	–	–	–	–
O=C(NCCF)NC(Cc1ccccc1)c1cccs1 (stereo not shown) [1-(2-fluoroethyl)-3-[2-phenyl-1-(2-thienyl)ethyl]urea]	–	–	0.99	–	–	0.35	0.346	0.35	0.0285	0.119	–
O=C(NCCF)NC(Cc1ccccc1)c1ccccc1Cl (stereo not shown) [1-[1-(2-chlorophenyl)-2-phenylethyl]-3-(2-fluoroethyl)urea]	not active	0.407	0.64	–	0.7	0.34	–	–	–	–	–
O=C(NCCF)NC(Cc1ccccc1)c1ccc(Cl)c(Cl)c1 (stereo not shown) [1-[1-(3,4-dichlorophenyl)-2-phenylethyl]-3-(2-fluoroethyl)urea]	not active	0.488	0.69	not active	–	–	–	–	–	–	–
O=C(NCCF)NC(Cc1ccccc1)c1cccc(Br)c1 (stereo not shown) [1-[1-(3-Bromophenyl)-2-phenylethyl]-3-(2-fluoroethyl)urea]	not active	0.173	0.86	not active	–	–	–	–	–	–	–
O=C(NCCF)NC(Cc1ccccc1)c1cccc(Cl)c1F (stereo not shown) [1-[1-(3-chloro-2-fluorophenyl)-2-phenylethyl]-3-(2-fluoroethyl)urea]	not active	0.138	1.0	not active	–	–	–	–	–	–	–
Cc1cccc(CC(NC(=O)NCCF)c2cccc(Cl)c2)c1 (stereo not shown) [1-[1-(3-chloro-phenyl)-2-m-tolyl-ethyl]-3-(2-fluoro-ethyl)-urea]	–	0.00599	0.9	not active	–	–	–	0.35	–	–	0.0704
O=C(NCCF)NC(Cc1ccncc1)c1cccc(Cl)c1 (stereo not shown) [1-[1-(3-chloro-phenyl)-2-pyridin-4-yl-ethyl]-3-(2-fluoro-ethyl)-urea]	–	0.0307	1.32	not active	–	–	–	0.57	–	–	0.368
